Tests used:
PIM1 [1] = target: T1, PIM1 (Homo sapiens, UniProt P11309); assay: LANCE Ultra kinase assay, PIM1; format: biochemical
T1 construct: purchased ProQinase, Freiburg, Germany 0186-0000-1
Excerpt: (§1) The second assay used was Perkin Elmer's LANCE® Ultra kinase assay which uses a ULight™-labeled peptide substrate and an appropriate Europium-labeled anti-phospho antibody. When the substrate becomes phosphorylated by a kinase of interest, the phosphorylated site on the substrate is recognized by the Europium-labeled anti-phospho antibody. […] The intensity of light emission is proportional to the level of ULight peptide phosphorylation. A kinase inhibitor reduces the FRET signal, thus providing an accurate and sensitive measure of inhibition potency.
The assay was performed in 384-well plates in two steps: PIM kinases were mixed with the ULight-substrate (CREBtide) in buffer and incubated for 10 min. Subsequently, ATP and molecules of the present disclosure were added in a kinase buffer at the appropriate concentration and the reactions were incubated for 1 hour, at room temperature in the dark. • After 1 h EDTA was added to stop the kinase reaction, Eu-W1024-labeled anti-phosphoserine-CREB (Ser133) Antibody (anti-phosphoCREBtide specific antibody) was added to the reaction in LANCE Detection buffer. The mixture was allowed to incubate for 30 min to allow binding of the antibody to the phosphorylated site before the plate was read using a Tecan microplate reader
Kinase Assay Buffer—50 mM HEPES pH7.0.1 mM EGTA, 10 mM MgCl2, 0.01% BRU-35.
The inhibitory activity of each compound against PIM kinases was measured with the LANCE® Ultra Kinase Assays by ChemDiv, Inc. (San Diego, Calif.).

PIM1 [2] = target: T1, PIM1; assay: Biochemical radiolabeled ATP kinase assay (Reaction Biology), PIM1; conditions: 10 μM ATP
Excerpt: as §1, with “potency. […]” for “potency.”
The standard protocol used for PIM3 was performed by Reaction Biology Corporation (Malvern, Pa.) using a capture assay performed in 20 mM HEPES at pH 7.5 containing 10 mM MgCl2, 10 mM MnCl2, 1 mM EGTA, 0.02% Brij35, 0.02 mg/mL BSA, 0.1 mM Na3VO4, 2 mM DTT, 0.02% Brij35, 10 μM ATP, and 20 μM peptide substrate […]. […] The bound ^33P-peptide substrate was quantified by scintillation counting and the disintegrations per minute (dpm) obtained, being directly proportional to the amount of ^33P-peptide produced by PIM3, were used to determine the IC50 for each compound. […]
(§2) The inhibitory activity of each compound against PIM kinases was measured with the radioisotope filter binding assay, a type of substrate phosphorylation assays, available at Reaction Biology Corporation (Mavern, Pa.).

DU-145 = assay: CellTiter-Glo cancer cell growth inhibition, DU-145; format: cell-based; conditions: Homo sapiens, DU-145, 72 h
Excerpt: The CellTiter-Glo® Luminescent Cell Viability Assay is a sensitive homogeneous method to determine the number of viable cells in culture, Detection is based on using the luciferase reaction to measure the amount of ATP from viable cells. The amount of ATP in cells correlates with cell viability. Within minutes after a loss of membrane integrity, cells lose the ability to synthesize ATP, and endogenous ATPases destroy any remaining ATP; thus the levels of ATP fall precipitously. The CellTiter-Glo® Reagent does three things upon addition to cells. It lyses cell membranes to release ATP; it inhibits endogenous ATPases, and it provides luciferin, luciferase and other reagents necessary to measure ATP using a bioluminescent reaction. The unique properties of a proprietary stable luciferase. There is a linear relationship (r2=0.99) between the luminescent signal and the number of cells from 0 to 50.000 cells per well.
All assays were performed by Reaction Biology Corporation (Malvern, Pa.) or ChemDiv, Inc. (San Diego, Calif.). […]
Conditions: 37° C., air 95%; HEPA-filtered carbon dioxide (CO2) 5%, humidified atmosphere. • Cells were grown in 175 cm^2 flasks to 80-90% of confluency. • Culture media was aspirated and cell layer was briefly rinsed with Versen solution to remove all traces of serum. • 2 mL of accutase was added to cells. • Flasks were retuned to incubator for 5 min to allow cell detachment. • Add 6.0 mL of complete growth medium. • Single cell suspension was created by gently pipetting. • Cells were counted using a Hematocytometer and a suspension with the desired cell concentration was prepared. […]
Stock solutions ([…]) were diluted with cell culture media to produce 500× serial dilutions and […] of final compound dilutions were added to cells in assay plates to screen a series of 10 doses starting at 100 mM. […] Luminescence intensity was measured for each well using the Tecan M 1000 microplate reader after 5 min of incubation with CellTiter-Glo Reagent. The number of viable cells in culture was determined based on quantitation of the ATP present in each culture well. […]

PIM3 = target: T2, PIM3 (Homo sapiens, UniProt Q86V86); assay: Biochemical radiolabeled ATP kinase assay (Reaction Biology), PIM3; conditions: for IC50: 10 μM ATP
T2 construct: purchased SignalChem, Richmond, Canada P37-10BG
Excerpt: as §1
The basic biochemical assay employs radiolabeled ATP to measure the kinase-catalyzed transfer of radioactive phosphorus to a tyrosine-containing peptide substrate, according to the general equation: […]
Reaction: Substrate+[γ-^33P]−ATP→^33P-Substrate+ADP
The standard protocol used for PIM3 was performed by Reaction Biology Corporation (Malvern, Pa.) using a capture assay performed in 20 mM HEPES at pH 7.5 containing 10 mM MgCl2, 10 mM MnCl2, 1 mM EGTA, 0.02% Brij35, 0.02 mg/mL BSA, 0.1 mM Na3VO4, 2 mM DTT, 0.02% Brij35, 10 μM ATP, and 20 μM peptide substrate […]. […] Reagents were combined and incubation at 30° C. for 30 min, the reaction was initiated by adding [γ-^33P]-ATP (10 ρCi/mL [γ-^33P]-ATP) and incubated for 2 h at 30° C. The reaction was then terminated by the addition of one-third volume of stop reagent (0.25 mM EDTA and 33 mM ATP in dH20). A […] aliquot was removed, spotted onto a P-81 filternat ion exchange paper and washed sequentially with 10% (w/v) chloroacetic acid and dH20 to remove ATP. The bound ^33P-peptide substrate was quantified by scintillation counting and the disintegrations per minute (dpm) obtained, being directly proportional to the amount of ^33P-peptide produced by PIM3, were used to determine the IC50 for each compound. […]
as §2

T1 sequence (P11309 whole entry): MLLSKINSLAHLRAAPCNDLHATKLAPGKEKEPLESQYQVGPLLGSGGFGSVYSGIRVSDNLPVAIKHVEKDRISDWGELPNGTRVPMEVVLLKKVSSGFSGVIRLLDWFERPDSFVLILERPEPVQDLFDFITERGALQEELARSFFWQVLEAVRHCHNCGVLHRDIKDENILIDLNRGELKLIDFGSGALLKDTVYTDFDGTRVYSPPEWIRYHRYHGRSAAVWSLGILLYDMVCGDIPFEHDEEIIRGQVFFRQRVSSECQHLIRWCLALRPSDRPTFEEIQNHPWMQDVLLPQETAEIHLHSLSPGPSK

Row | SMILES | IC50 (PIM1 [1]; ATP 1 mM) [nM] | IC50 (PIM1 [2]) [nM] | EC50 (DU-145) [nM] | Selectivity among PIM1-3 (IC50 plots, FIGS. 1A-1C) (PIM3) | IC50 (PIM3) [nM] | IC50 (PIM1 [1]; ATP 0.1 mM) [nM]
1 | O=C1NC(=O)c2c1c1c3cc(F)c(O)cc3[nH]c1c1c2c2ccccc2n1CCN1CCOCC1 [Compound 18, 3-fluoro-2-hydroxy-12-(2-morpholin-4-ylethyl)-12,13-dihydro-5H-indolo[2,3-a]pyrrolo[3,4-c]carbazole-5,7(6H)-dione] | 1.7 | 1.8 | 41 | PIM3 selectivity | 0.25 | 
2 | O=C1NC(=O)c2c1c1c3ccccc3[nH]c1c1c2c2cc(F)c(O)cc2n1CCN1CCOCC1 [Compound 19, 3-fluoro-2-hydroxy-13-(2-morpholin-4-ylethyl)-12,13-dihydro-5H-indolo[2,3-a]pyrrolo[3,4-c]carbazole-5,7(6H)-dione] | 0.82 | 0.98 | 40 |  | 0.2 | 0.23

Source: patent US20220274997A1, “PIM KINASE INHIBITOR COMPOSITIONS AND USES THEREOF” (Snap Bio, Inc., priority 2019, published 2022)
